Among the data in US9556179B2 (BRISTOL-MYERS SQUIBB COMPANY, priority 2012, dated 2017) are IC50 values, retold here.

What is called IC50 is the concentration that gives 50% inhibition. Read a low IC50 as greater potency in that assay.

One assay deals with CK1ε (Homo sapiens (Human), UniProt P49674). As to the kind of experiment: CK1ε kinase assay (Caliper LABCHIP electrophoretic separation of fluoresceinated peptide substrate and product). It counts as biochemical. Conditions: 200 pM enzyme, 50 μM ATP, 22 hours at room temperature. The method, boiled down:
(§1)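 Eleven-concentration compound series in kinase reactions run for 22 hours at room temperature. Terminated with EDTA, with product conversion read by electrophoretic separation. Non-linear regression gave IC50.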

In a further assay the target is CK1δ (Homo sapiens (Human), UniProt P48730). As to the kind of experiment: CK1δ kinase assay (Caliper LABCHIP electrophoretic separation of fluoresceinated peptide substrate and product). Format: biochemical. The settings on record: 200 pM enzyme, 50 μM ATP, 22 hours at room temperature. In outline: as §1
Chain of CK1δ (P48730 whole entry): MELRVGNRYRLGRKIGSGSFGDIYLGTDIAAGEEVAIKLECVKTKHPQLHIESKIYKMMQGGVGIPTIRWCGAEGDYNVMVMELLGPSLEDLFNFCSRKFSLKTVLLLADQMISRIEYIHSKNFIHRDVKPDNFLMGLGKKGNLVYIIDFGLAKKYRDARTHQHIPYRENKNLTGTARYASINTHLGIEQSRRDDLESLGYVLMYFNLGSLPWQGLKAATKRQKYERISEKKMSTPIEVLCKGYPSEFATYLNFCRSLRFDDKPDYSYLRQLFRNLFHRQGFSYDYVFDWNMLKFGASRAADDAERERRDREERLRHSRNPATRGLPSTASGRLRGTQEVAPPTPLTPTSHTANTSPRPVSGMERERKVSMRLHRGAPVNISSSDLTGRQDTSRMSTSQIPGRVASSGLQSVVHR

Chain of CK1ε (P49674 whole entry): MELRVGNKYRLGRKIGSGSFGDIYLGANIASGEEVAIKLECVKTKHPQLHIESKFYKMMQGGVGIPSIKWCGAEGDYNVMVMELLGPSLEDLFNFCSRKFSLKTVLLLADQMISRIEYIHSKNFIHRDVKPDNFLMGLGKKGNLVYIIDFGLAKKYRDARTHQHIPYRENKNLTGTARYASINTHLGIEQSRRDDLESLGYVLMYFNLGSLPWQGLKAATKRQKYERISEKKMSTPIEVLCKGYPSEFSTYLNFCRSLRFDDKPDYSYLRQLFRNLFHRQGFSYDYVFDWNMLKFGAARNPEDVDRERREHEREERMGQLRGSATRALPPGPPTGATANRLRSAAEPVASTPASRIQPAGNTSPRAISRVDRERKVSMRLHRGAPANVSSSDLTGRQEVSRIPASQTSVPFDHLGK

Turning to `N#Cc1ccc(-c2nc(C(F)(F)F)c(C(=O)Nc3cn4nc(-c5c(-c6ccc(F)cc6)nc6ccccn56)ccc4n3)s2)cc1` [Compound 190, 2-(4-cyanophenyl)-N-(6-(2-(4-fluorophenyl)imidazo [1,2-a]pyridin-3-yl)imidazo [1,2-b]pyridazin-2-yl)-4-(trifluoromethyl)thiazole-5-carboxamide], the IC50 against CK1ε stood at 6.05 nM; at CK1δ, 4.77 nM.

Turning to `O=C(Nc1cn2nc(-c3c(-c4ccc(F)cc4)nc4ccccn34)ccc2n1)c1ccccc1` [Compound 191, N-(6-(2-(4-fluorophenyl)imidazo[1,2-a]pyridin-3-yl)imidazo[1,2-b]pyridazin-2-yl)benzamide], the IC50 on CK1ε turned out to be 3.02 nM; on CK1δ it was 2.11 nM.

Consider `CC(C)(C)C(=O)Nc1cc(C(=O)Nc2cn3nc(-c4c(-c5ccc(F)cc5)nc5ccccn45)ccc3n2)ccn1` [Compound 192, N-(6-(2-(4-fluorophenyl)imidazo[1,2-a]pyridin-3-yl)imidazo[1,2-b]pyridazin-2-yl)-2-pivalamidoisonicotinamide], for which the IC50 was found to be 1.06 nM against CK1ε and 0.096 nM at CK1δ.

With `CN(C)c1cc(C(=O)Nc2cn3nc(-c4c(-c5ccc(F)cc5)nc5ccccn45)ccc3n2)ccn1` [Compound 193, 2-(dimethylamino)-N-(6-(2-(4-fluorophenyl)imidazo[1,2-a]pyridin-3-yl)imidazo[1,2-b]pyridazin-2-yl) isonicotinamide], the IC50 was 1.28 nM against CK1ε and 0.111 nM against CK1δ.

In the case of `Nc1cc(C(=O)Nc2cn3nc(-c4c(-c5ccc(F)cc5)nc5ccccn45)ccc3n2)ccn1` [Compound 194, 2-amino-N-(6-(2-(4-fluorophenyl)imidazo[1,2-a]pyridin-3-yl)imidazo[1,2-b]pyridazin-2-yl) isonicotinamide], the IC50 against CK1ε was found to be 13.8 nM; at CK1δ it was 0.715 nM.

Consider `O=C(Nc1cn2nc(-c3c(-c4ccc(F)cc4)nc4ccccn34)ccc2n1)c1ccnc(O)c1` [Compound 195, N-(6-(2-(4-fluorophenyl)imidazo[1,2-a]pyridin-3-yl)imidazo[1,2-b]pyridazin-2-yl)-2-hydroxyisonicotinamide], for which the figures for the concentration for half-maximal inhibition (IC50) on CK1ε and against CK1δ were 4.87 nM and 0.603 nM, respectively.

With `O=C(Nc1cn2nc(-c3c(-c4ccc(F)cc4)nc4ccccn34)ccc2n1)c1ccnc(F)c1` [Compound 196, 2-fluoro-N-(6-(2-(4-fluorophenyl)imidazo[1,2-a]pyridin-3-yl)imidazo[1,2-b]pyridazin-2-yl)isonicotinamide], the IC50 at CK1ε is 5.91 nM; against CK1δ, 3.65 nM.

Take `CC(C)(C)c1cc(C(=O)Nc2cn3nc(-c4c(-c5ccc(F)cc5)nc5ccccn45)ccc3n2)ccn1` [Compound 197, 2-(tert-butyl)-N-(6-(2-(4-fluorophenyl)imidazo[1,2-a]pyridin-3-yl)imidazo[1,2-b]pyridazin-2-yl)isonicotinamide]: the half-inhibitory concentration (IC50) is 8.98 nM against CK1ε and 2.99 nM at CK1δ.

In the case of `O=C(Nc1cn2nc(-c3c(-c4ccc(F)cc4)nc4ccccn34)ccc2n1)c1ccnc(C(F)(F)F)c1` [Compound 198, N-(6-(2-(4-fluorophenyl)imidazo[1,2-a]pyridin-3-yl)imidazo[1,2-b]pyridazin-2-yl)-2-(trifluoromethyl) isonicotinamide], the IC50 against CK1ε stood at 34.6 nM; at CK1δ, 3.88 nM.

Take `O=C(Nc1cn2nc(-c3c(-c4ccc(F)cc4)nc4ccccn34)ccc2n1)c1cc(Cl)ncc1C(F)(F)F` [Compound 199, 2-chloro-N-(6-(2-(4-fluorophenyl)imidazo[1,2-a]pyridin-3-yl)imidazo[1,2-b]pyridazin-2-yl)-5-(trifluoromethyl) isonicotinamide]: the IC50 against CK1ε is 16.3 nM; on CK1δ, 3.24 nM.

For the compound `O=C(Nc1cn2nc(-c3c(-c4ccc(F)cc4)nc4ccccn34)ccc2n1)c1ccncc1F` [Compound 200, 3-fluoro-N-(6-(2-(4-fluorophenyl)imidazo[1,2-a]pyridin-3-yl)imidazo[1,2-b]pyridazin-2-yl) isonicotinamide], the IC50 is 4.61 nM on CK1ε and 1.78 nM at CK1δ.
